This experiment deals with T1, NgCA (Neisseria gonorrhoeae, UniProt Q50940).
T1 construct: gene cah; recombinant enzyme obtained in-house
T1 sequence (Q50940 27-252): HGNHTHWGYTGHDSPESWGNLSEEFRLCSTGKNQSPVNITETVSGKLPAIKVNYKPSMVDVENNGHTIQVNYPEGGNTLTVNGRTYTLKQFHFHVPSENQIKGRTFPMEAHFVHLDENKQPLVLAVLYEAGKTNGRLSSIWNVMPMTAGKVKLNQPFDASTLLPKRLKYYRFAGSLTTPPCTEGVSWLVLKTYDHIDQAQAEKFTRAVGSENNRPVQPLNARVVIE
Nature of the experiment: stopped-flow CO2 hydration assay. It counts as biochemical. Particulars: for Ki: read-out: Ki (nM)^a / NgCA.

As a reminder, the pKi is the negative decadic logarithm of the Ki, by convention in mol/L. Low readings indicate a high Ki, high ones a low Ki.

SMILES strings stand for the structures. pKi: −log10 of the molar value. Where two headings read alike, the source gives them in different places.

As for `OCCCCNC(=S)S` [compound 4, 4], the Ki was found to be 438 nM.
The same measure, in the same setting: the figure for `O=C(O)C1CCCCN1C(=S)S` (stereo not drawn) [compound 7, 7] is 827 nM.
As to `CN(Cc1ccccc1)C(=S)S` [compound 24, 24], the Ki was determined as 654 nM.
Take `NS(=O)(=O)c1ccc(CCNC(=S)S)cc1` [compound 1, 1]: the Ki was 83.7 nM.
For the molecule `OCCCNC(=S)S` [compound 5, 5], the Ki came to 413 nM.
Still for that read-out and setting: the figure for `CCCN(CCC)C(=S)S` [compound 26, 26] is 522 nM.
Take `CC(C)CN(CC(C)C)C(=S)S` [compound 22, 22]: the Ki turned out to be 554 nM.
As for `S=C(S)N[C@@H]1CN2CCC1CC2` [compound 11, 11], the Ki turned out to be 473 nM.
As to `OCCCCCNC(=S)S` [compound 21, 21], the Ki worked out at 454 nM.
Still for that read-out and setting: the figure for `S=C(S)N[C@H]1CN2CCC1CC2` [compound 16, 16] is 518 nM; for `CN(C)CCNC(=S)S` [compound 3, 3] it is 568 nM.
`S=C(S)N1CCCCC1` [compound 17, 17] showed a negative-log Ki (pKi) of 6.14.
Turning to `CCCCN(CCCC)C(=S)S` [compound 25, 25], the Ki was 460 nM.
The same measure, in the same setting: the figure for `O=C(O)[C@H]1CCCN(C(=S)S)C1` [compound 14, 14] is 335 nM; for `CCCCN(CC)C(=S)S` [compound 27, 27] it is 577 nM.
Same read-out and setting: then `CC1COCCN1C(=S)S` (stereo not drawn) [compound 19, 19], with 723 nM.
The same measure, in the same setting: then `O=C(O)C1COCCN1C(=S)S` (stereo not drawn) [compound 18, 18], with 672 nM; and `CC(=O)NC1CCCN(C(=S)S)C1` (stereo not drawn) [compound 15, 15], with 451 nM.
As for `N#CC1(c2ccccc2)CCN(C(=S)S)CC1` [compound 30, 30], the Ki was 365 nM.
Still for that read-out and setting: then `O=C(O)C1CCN(C(=S)S)CC1` [compound 8, 8], with 514 nM.
On the same count and under the same terms, then `OC1CCCN(C(=S)S)C1` (stereo not drawn) [compound 10, 10], with 367 nM; and `S=C(S)N1CCN(C(=S)S)CC1` [compound 29, 29], with 136 nM; and `O=C(O)C1CCCN(C(=S)S)C1` (racemic) [compound 9, 9], with 297 nM.
In turn, `S=C(S)N1CCNCC1` [compound 28, 28] had a negative logarithm of the Ki (pKi) of 6.56.
As to `O=C(CN1CCN(C(=S)S)CC1)NC1CCCCC1` [compound 20, 20], the Ki is 84.4 nM.
The same measure, in the same setting: the figure for `CC(C)(C)OC(=O)NC1CCCN(C(=S)S)C1` (stereo not drawn) [compound 6, 6] is 538 nM; for `S=C(S)NCCc1ccccc1` [compound 2, 2] it is 259 nM; for `O=C(O)[C@@H]1CCCN(C(=S)S)C1` [compound 13, 13] it is 242 nM.
For the molecule `S=C(S)N1CCOCC1` [compound 23, 23], the Ki was determined as 483 nM.
The same measure, in the same setting: then `S=C(S)NC1CN2CCC1CC2` (racemic) [compound 12, 12], with 482 nM.

The record behind these values is PMC8667944 (Journal of Enzyme Inhibition and Medicinal Chemistry, 2021).
